One compound from ChEMBL document CHEMBL1141478, “Lysianadioic acid, a carboxypeptidase B inhibitor from Lysiana subfalcata” (Bioorg Med Chem Lett, 2008) can be followed below.

This experiment concerns the target T1, Carboxypeptidase B (Homo sapiens, UniProt P15086).
T1 sequence (P15086 whole entry): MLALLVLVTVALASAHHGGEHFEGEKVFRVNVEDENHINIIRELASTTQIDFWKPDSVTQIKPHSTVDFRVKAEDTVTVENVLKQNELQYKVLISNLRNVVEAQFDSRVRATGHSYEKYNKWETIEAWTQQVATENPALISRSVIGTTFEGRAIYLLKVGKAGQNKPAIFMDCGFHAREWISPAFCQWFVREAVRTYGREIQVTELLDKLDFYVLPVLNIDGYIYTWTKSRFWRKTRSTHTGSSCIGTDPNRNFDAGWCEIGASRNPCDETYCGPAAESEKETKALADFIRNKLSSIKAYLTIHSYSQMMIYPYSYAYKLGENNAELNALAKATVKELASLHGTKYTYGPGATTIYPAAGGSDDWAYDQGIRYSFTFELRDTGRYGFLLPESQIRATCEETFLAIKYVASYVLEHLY
Nature of the experiment: Inhibition of carboxypeptidase B.

As for `N=C(N)NCC/C=C(/CC(=O)O)C(=O)O` [LYSIANADIOIC ACID], 360 nM corresponded to half-maximal inhibition (IC50).

For orientation: IC50 means the concentration at which inhibition is half-maximal.
